Experimental data reported in the supplement of paper PMC10627819.

Legend:
B. subtilis 168 = test: Bliss interaction score (quartile over a dose matrix) (fitness difference); higher = more antagonism (negative = synergy)
Procedure, shortened: (§1)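 Growth in each well was taken as OD595 at entry into stationary phase. Dividing by the plate's robust no-drug mean and capping at 1 gave fitness, and single-drug fitness was inferred from the combination data. The Bliss score, observed minus product-expected fitness, is summarised by quartiles over technical, biological and donor/recipient replicates.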

S. aureus Newman [1] = test: as above
Procedure, shortened: as §1

S. pneumoniae D39V [2] = test: as above
Procedure, shortened: as §1

S. aureus DSM 20231 [3] = test: as above
Procedure, shortened: as §1

S. aureus Newman [4] = test: fitness (endpoint OD595 vs no drug) (fraction); higher = more growth
Procedure, shortened: (§2)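 Fitness expresses the optical density reached at the stationary-phase transition as a fraction of the robust mean of no-drug control wells. It is capped at 1. Measurements were OD595 every 30 min for 14 h at 37 °C after inoculation of 384-well plates at OD595 0.01 (30 µl, or 55 µl for S. pneumoniae), minus the first reading.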

S. pneumoniae D39V [5] = test: as above
Procedure, shortened: as §2

S. aureus DSM 20231 [6] = test: as above
Procedure, shortened: as §2
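For Bliss interaction score (quartile over a dose matrix) in this document: first quartile when negative (synergy) and third quartile when positive (antagonism).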

CO/N=C(\C(=O)N[C@@H]1C(=O)N2C(C(=O)[O-])=C(C[N+]3(C)CCCC3)CS[C@H]12)c1csc(N)n1 [Cefepime] + C[n+]1ccc(-c2cc[n+](C)cc2)cc1 [Paraquat]
Conditions | Bliss interaction score
B. subtilis 168 | -0.121
S. aureus DSM 20231 [3] | -0.0615
S. aureus Newman [1] | 0.0489
S. pneumoniae D39V [2] | 0.0315

Conditions | fitness
S. aureus DSM 20231 [6], first compound 0.125 µg/mL, partner 1.25 µg/mL | 0.9
S. aureus DSM 20231 [6], first compound 0.125 µg/mL, partner 2.5 µg/mL | 0.888
S. aureus DSM 20231 [6], first compound 0.125 µg/mL, partner 5 µg/mL | 0.874
S. aureus DSM 20231 [6], first compound 0.25 µg/mL, partner 1.25 µg/mL | 0.889
S. aureus DSM 20231 [6], first compound 0.25 µg/mL, partner 2.5 µg/mL | 0.876
S. aureus DSM 20231 [6], first compound 0.25 µg/mL, partner 5 µg/mL | 0.821
S. aureus DSM 20231 [6], first compound 0.5 µg/mL, partner 2.5 µg/mL | 0.853
S. aureus DSM 20231 [6], first compound 0.5 µg/mL, partner 5 µg/mL | 0.837
S. aureus Newman [4], first compound 0.125 µg/mL, partner 1.25 µg/mL | 0.901
S. aureus Newman [4], first compound 0.125 µg/mL, partner 2.5 µg/mL | 0.916
S. aureus Newman [4], first compound 0.125 µg/mL, partner 5 µg/mL | 0.898
S. aureus Newman [4], first compound 0.25 µg/mL, partner 1.25 µg/mL | 0.851
S. aureus Newman [4], first compound 0.25 µg/mL, partner 2.5 µg/mL | 0.854
S. aureus Newman [4], first compound 0.25 µg/mL, partner 5 µg/mL | 0.846
S. aureus Newman [4], first compound 0.5 µg/mL, partner 1.25 µg/mL | 0.768
S. aureus Newman [4], first compound 0.5 µg/mL, partner 2.5 µg/mL | 0.773
S. aureus Newman [4], first compound 0.5 µg/mL, partner 5 µg/mL | 0.839
S. pneumoniae D39V [5], first compound 0.007 µg/mL, partner 1.5 µg/mL | 0.99
S. pneumoniae D39V [5], first compound 0.007 µg/mL, partner 3 µg/mL | 0.996
S. pneumoniae D39V [5], first compound 0.007 µg/mL, partner 6 µg/mL | 0.971
S. pneumoniae D39V [5], first compound 0.014 µg/mL, partner 1.5 µg/mL | ≥ 1
S. pneumoniae D39V [5], first compound 0.014 µg/mL, partner 3 µg/mL | ≥ 1
S. pneumoniae D39V [5], first compound 0.014 µg/mL, partner 6 µg/mL | ≥ 1
S. pneumoniae D39V [5], first compound 0.028 µg/mL, partner 1.5 µg/mL | 0.934
S. pneumoniae D39V [5], first compound 0.028 µg/mL, partner 3 µg/mL | 0.917
S. pneumoniae D39V [5], first compound 0.028 µg/mL, partner 6 µg/mL | 0.869

fitness, S. pneumoniae D39V [5], one replicate
Conditions | first compound 0.0078 µg/mL | first compound 0.0155 µg/mL | first compound 0.031 µg/mL
partner 1.5 µg/mL | 0.994 | 0.985 | 0.957
partner 3 µg/mL | ≥ 1 | ≥ 1 | 0.975
partner 6 µg/mL | ≥ 1 | ≥ 1 | ≥ 1

Cn1nnc(-c2ccc(-c3ccc(N4C[C@H](CO)OC4=O)cc3F)cn2)n1 [Tedizolid] + CC1=C\[C@@H](O)CC(=O)Cc2nc(co2)C(=O)N2CCC=C2C(=O)O[C@H](C(C)C)[C@H](C)/C=C/C(=O)NC\C=C\1 [Virginiamycin M1]
Conditions | Bliss interaction score
B. subtilis 168 | -0.0674
S. aureus DSM 20231 [3] | -0.078
S. aureus Newman [1] | 0.0611
S. pneumoniae D39V [2] | 0.103

fitness
Conditions | first compound 0.03125 µg/mL | first compound 0.0625 µg/mL | first compound 0.125 µg/mL | first compound 0.25 µg/mL | first compound 0.5 µg/mL
S. aureus DSM 20231 [6], partner 0.0625 µg/mL | – | 0.839 | 0.579 | 0.194 | –
S. aureus DSM 20231 [6], partner 0.125 µg/mL | – | 0.889 | 0.542 | 0.212 | –
S. aureus DSM 20231 [6], partner 0.25 µg/mL | – | 0.888 | – | 0.102 | –
S. aureus Newman [4], partner 0.0625 µg/mL | – | 0.965 | 0.814 | – | –
S. aureus Newman [4], partner 0.125 µg/mL | – | 0.97 | 0.823 | – | –
S. aureus Newman [4], partner 0.25 µg/mL | – | 0.997 | 0.843 | – | –
S. pneumoniae D39V [5], partner 0.5 µg/mL | 0.972 | 0.962 | 0.807 | – | –
S. pneumoniae D39V [5], partner 1 µg/mL | 0.978 | 0.973 | 0.807 | – | –
S. pneumoniae D39V [5], partner 2 µg/mL | 0.955 | 0.948 | 0.824 | 0.785 | 0.607

fitness, one replicate
Conditions | first compound 0.0625 µg/mL | first compound 0.125 µg/mL | first compound 0.25 µg/mL | first compound 0.5 µg/mL
S. aureus DSM 20231 [6], partner 0.5 µg/mL | 0.676 | 0.31 | 0.0481 | –
S. aureus DSM 20231 [6], partner 1 µg/mL | 0.681 | 0.327 | 0.0496 | –
S. aureus Newman [4], partner 0.5 µg/mL | 0.885 | 0.91 | 0.57 | –
S. aureus Newman [4], partner 1 µg/mL | 0.956 | 0.956 | 0.565 | –
S. aureus Newman [4], partner 2 µg/mL | 0.851 | 0.785 | 0.456 | –
S. pneumoniae D39V [5], partner 0.15 µg/mL | – | 0.905 | 0.835 | 0.534
S. pneumoniae D39V [5], partner 0.3 µg/mL | – | 0.892 | 0.818 | 0.505
S. pneumoniae D39V [5], partner 0.5 µg/mL | – | – | 0.838 | 0.659
S. pneumoniae D39V [5], partner 1 µg/mL | – | – | 0.771 | 0.523
